Legend:
ABD-L253P = molecular target: T1, ABD-L253P (Homo sapiens, UniProt O15020, L253P); experiment: Sedimentation of ABD L253P without actin (aggregation); conditions: 1.6 μM
T1 construct: His-SUMO (cleaved yes); made in house; host or cells: E. coli BL21(DE3), pE-SUMOpro
Experimental: F-actin and ABD binding assays were performed as previously described. In brief, binding assays used 1 μM ABD protein, 1 μM F-actin and 1-50 μM compound (as indicated) or DMSO control for a total reaction volume of 60 μL in F-buffer containing 10 mM Tris, pH 7.5, 150 mM NaCl, 0.5 mM ATP, 2 mM MgCl2, and 1 mM DTT. Following 30 min incubation at room temperature (21° C.). F-actin was pelleted using centrifugation at 100,000×g at 25° C. for 30 min. Unbound ABD in the supernatant was measured following SDS-PAGE and Coomassie blue staining in accord. In addition, control co-sedimentations assays that lacked actin were performed to test if compounds cause ABD aggregation. F-actin and Lifeact-mCherry binding assays were undertaken with 2 μM Lifeact-mCherry, 30 μM F-actin and 1-50 μM compound (as indicated) or DMSO control for a total reaction volume of 80 μL in F-buffer. For a no-actin binding control, an assay sample with no F-actin was also set up. Binding reactions were allowed to reach equilibrium at room temperature (21° C.) for 30 min and then F-actin was pelleted by centrifugation at 100,000×g at 25° C. for 30 min. The amount of unbound Lifeact-mCherry was sampled by loading 7 μL of spin supernatant on a low volume black bottom 384-well plate (Greiner). Amount of mCherry was determined by acquiring fluorescence spectrum peak intensity at ˜600 nm using a spectral unmixing plate reader (Fluorescence Innovations, Inc) equipped with a 532 nm laser (Laserglow Technologies, Ontario, Canada) for excitation, 532 nm longpass filter for emission, and PMT for emission detection. The fraction of Lifeact-mCherry bound to F-actin was determined by subtracting from one the fraction of supernatant fluorescence intensity relative to the no-actin control sample, using the following equation: […]
In addition to a reduction in cell viability, the primary and counter screen may be sensitive to compounds that promote ABD-L253P protein aggregation. […] Our ABD-L253P to actin co-sedimentation assay is unlikely to be sensitive to ABD aggregation, as it is set up to monitor maximal sedimentation of ABD-L253P with actin at ˜90% ABD-L253P co-sedimenting. To directly measure the impact of 10 μM Hit compounds on ABD aggregation, we repeated the ABD-actin co-sedimentation without actin present.

[1] = molecular target: T2, GFP-ABD-L253P and mCherry (non-specific FRET) in HEK293-6E cells (Homo sapiens, UniProt O15020, L253P); experiment: Counter FRET assay, non-specific FRET (GFP-ABD-L253P plus mCherry); assay type: cell-based; conditions: swinholide A 3 μM
T2 construct: L252P β-III-spectrin (human) ABD residues 1-284; expressed in transfected cells; host or cells: HEK293-6E, pTT5 vector, transient
T2 sequence (O15020 1-284 L253P): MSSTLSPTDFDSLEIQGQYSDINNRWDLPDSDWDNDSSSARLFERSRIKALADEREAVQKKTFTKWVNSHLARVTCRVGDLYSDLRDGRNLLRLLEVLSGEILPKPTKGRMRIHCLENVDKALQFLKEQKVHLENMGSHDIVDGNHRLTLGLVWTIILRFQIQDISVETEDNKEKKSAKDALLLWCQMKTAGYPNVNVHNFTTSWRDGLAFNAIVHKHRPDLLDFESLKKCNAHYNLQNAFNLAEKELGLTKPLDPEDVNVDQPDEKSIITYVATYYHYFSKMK
Experimental: At 2×10^6 cells/mL, HEK293-6E cells were transfected with GFP-ABD (2.4 μg), Lifeact-mCherry (2.4-16.8 μg), mCherry (1.2-16.8 μg), and/or pTT5 (0.8-17.6 μg) using the 293fectin protocol (Thermo Fisher Scientific) with 20 μg total DNA. The cells were harvested 24 hours later by centrifugation at 100×g for 5 min, and then washed twice with PBS. Cell viability and concentration were determined using trypan blue assay and a Countess cell counter (Invitrogen).
Using a Multidrop Combi liquid dispenser (Thermo Fisher Scientific), 10^6 cells/mL were dispersed into 1536-well and 384-well plates as 5 or 50 μL aliquots, respectively. For control and tool compound plates, 100 nL of DMSO or potential tool compound was loaded using the Mantis (Formulatrix). […] Two to three hours after sample loading, fluorescence lifetime measurements were performed using high-throughput fluorescence plate-readers provided by Photonic Pharma LLC (MN, USA), including one detecting fluorescence lifetime and another detecting fluorescence spectra, as described previously.
To develop a biosensor that monitors the binding of mutant L253P β-III-spectrin to actin filaments in live cells, a fluorescence resonance energy transfer (FRET) approach was tested. […] To measure the non-specific component to our FRET readout, we concurrently tested expression of mCherry in place of Lifeact-mCherry. […]

T1 sequence (O15020 1-284 L253P): as above

## CO[C@H]1C[C@H](CC[C@H](C)[C@H](O)[C@H](C)[C@H]2OC(=O)/C=C/C(C)=C/C[C@H](O)C[C@@H]3C=CC[C@@H](C[C@H](OC)[C@@H](C)[C@@H](O)C[C@@H](O)[C@H](C)[C@@H]([C@@H](C)[C@@H](O)[C@@H](C)CC[C@H]4C[C@H](OC)C[C@H](C)O4)OC(=O)/C=C/C(C)=C/C[C@H](O)C[C@@H]4C=CC[C@@H](C[C@H](OC)[C@@H](C)[C@@H](O)C[C@@H](O)[C@@H]2C)O4)O3)O[C@@H](C)C1 [swinholide A]
ABD-L253P
  ABD sedimentation without actin: does not alter ABD sedimentation
[1]
  effect on counter (non-specific) FRET: did not significantly alter
